Assay results: PMC8692891 (Frontiers in Immunology, 2021)
Where no end group is shown, it is not given here.

What was measured:
[1] = system: STAT4 expression in MDLCs; assay: STAT4 Western blot in MDLCs; assay type: cell-based, human; conditions: n = 4; for Total STAT4 expression: MDLCs treated 24 h, CGRP 0.1 μM, SAX 0.1 μM, CGRP1–8 10 μM, LPS 10 μg/ml, normalized to beta actin
Protocol: For PBMCs, cells (2 × 10^6/sample) were activated with PHA (5 μg/ml) + IL2 (100 U/ml) for 48 h at 37°C, serum-starved overnight, and stimulated for 30 min at 37°C with either IL12 (10 ng/ml; R&D systems) or interferon alpha (IFNα, 5 × 10^4 U/ml; pbl Assay Science). For MDLCs, cells (2 × 10^6/sample) were re-suspended in complete RPMI medium without cytokines and rested overnight at 37°C. […] The cells were then washed and stimulated for 30 min at 37°C with combination of IL12 + IFNα at the concentrations indicated above. PBMCs/MDLCs were subsequently lysed for 30 min on ice with 100 μl lysis buffer [50 mM Tris buffer pH = 7.5, 150 mM NaCl, 2 mM EDTA, 1% Triton X100, 0.1% SDS, 1:100 dilutions of phosphatase inhibitors II/III and protease inhibitor cocktail (Sigma)], followed by three cycles of 10 s vortex and 10 min incubation on ice. Lysates were centrifuged for 10 min at 4°C/13,200 rpm, and supernatants were collected and stored at −80°C. […] Blocking was performed for 1 h at room temperature with blocking buffer (Tris-buffered saline (TBS), 0.5% Tween 20, and 0.5% dry milk). The blots were next incubated overnight at 4°C with commercial rabbit polyclonal Abs suitable for WB, directed against human STAT4 (Proteintech #13028-1AP, 0.5 μg/ml) or phosphorylated STAT4 (pSTAT4; R&D systems, #AF4319, 1 μg/ml), followed by 1:1,000 dilution of HRP-conjugated donkey-anti-rabbit IgG Ab (Southern Biotech) for 1 h at room temperature. Loading control was verified by incubation with goat polyclonal Ab to beta actin (abcam, 0.4 μg/ml), followed by 1:5,000 dilution of HRP-conjugated donkey-anti-goat IgG Ab (Promega). All Abs were diluted in blocking buffer, and pre-stained SDS-PAGE standard markers (ThermoFisher) were applied to determine molecular weights. Revelation was performed for 1–10 s with ECL-Prime chemiluminescence detection kit (Amersham). Images were acquired with the Fusion FX camera platform (Vilber Lournmat) and protein expression was quantified with ImageJ software (NIH).
(A, B) PHA/IL2-activated PBMCs were serum-starved overnight at 37°C, and left untreated (Un) or stimulated for 30 min with either IL12 or IFNα. […] (F) MDLCs were treated as described in panels (C, D) above, and further stimulated for 30 min with combination of IL12 + IFNα.

[2] = system: langerin surface expression in MDLCs; assay: Langerin surface expression in MDLCs (flow cytometry); assay type: cell-based, human
Protocol: (§1) For langerin surface expression, MDLCs were washed and stained for 20 min on ice in a final volume of 50 µl PBS with a phycoerythrin (PE)-conjugated mouse monoclonal Ab against human langerin (clone DCGM4, Beckman Coulter), or matched isotype control. For HIV-1 trans-infection, MDLCs were washed and pulsed with HIV-1 ADA (1ng p24 corresponding to multiplicity of infection of 0.2) for 4 h. MDLCs were next incubated with autologous CD4+ T-cells or with green fluorescent protein (GFP)-reporter T-cells, and HIV-1 replication was measured in the co-culture supernatants using p24 ELISA (Fujirebio) or by evaluating GFP fluorescent by flow cytometry, as we described ([13]–[15]). Fluorescent profiles were acquired using a Guava easyCite and analyzed with the InCyte software (Merck-Millipore).
(§2) Data was analyzed using Prism software (GraphPad). Concentration-response curves were analyzed with the [log(agonist) vs. response (three parameters)] model for langrin upregulation and the [log(inhibitor) vs. normalized response − variable slope] model for HIV-1 trans-infection inhibition. The -log molar concentrations of agonists generating 50% response represented potencies (i.e., pEC50 and pIC50). Statistical significance was analyzed with the two-tailed Student’s t-test.
The cells were then stained for surface langerin and examined by flow cytometry.

HIV-1 ADA = assay: MDLCs-mediated HIV-1 trans-infection to CD4+ T-cells; assay type: cell-based; conditions: for Inhibition of MDLCs-mediated HIV-1 trans-infection (in words): p24 ELISA or GFP-reporter T-cells by flow cytometry
Protocol: as §1, §2
The cells were then pulsed with HIV-1 ADA for 4 h, washed, and incubated for 7 days with autologous CD4+ T-cells (A–C) or 3 days with HIV-1 GFP-reporter T-cells (D). HIV-1 trans-infection and replication in T-cells was evaluated by p24 ELISA in the co-culture supernatants or by GFP expression and flow cytometry.

[3] = cited from earlier work
Description: However, CGRP-mediated vasodilation is potentially protective, at least during hypertension and cardiovascular complications ([5]).

[4] = system: HIV-1 (V29)-infected PBMCs; assay: HIV-1 infection of dermal T-cells in inner foreskin tissue explants ex-vivo; assay type: cell-based; conditions: explants pre-treated 24 h at 1 μM, inoculated 4 h, further three days incubation; flow cytometry; n = 4
Protocol: For infection experiments, round (8 mm diameter) inner foreskin tissue pieces were placed in 24-well plates and incubated submerged for 24 h at 37°C with 1 ml complete RPMI medium, alone or supplemented with CGRP or SAX (1 μM, four explants per condition). The tissues were next washed, transferred to two-chamber transwell inserts (Sigma), and inoculated in a polarized manner for 4 h at 37°c with either non-infected or HIV-1 (V29)-infected PBMCs (in duplicates), as we described ([11], [12]).
Dermal cell suspensions were prepared following washing of the explants, additional incubation for three days at 37°C submerged in 1 ml fresh medium, and subsequent enzymatic digestion with collagenase/DNase as we described ([11], [12]). Pooled cells of each duplicate were surface stained as above using FITC-conjugated mouse-anti-human CD3 Ab (Pharmingen), fixed, permeabilized, and stained for 30 min at room temperature with 1:160 dilution of PE-conjugated mouse-anti-human Ab to HIV-1 p24 and core antigens (Beckman Coulter). Fluorescent profiles were recorded using a Guava easyCyte and InCyte software.
(D, E) Other explants were further incubated for additional three days and digested with collagenase/DNase. In panel (D), shown are representative flow cytometry dot plots of dermal cell suspensions double stained for surface CD3 and intracellular p24 and examined by flow cytometry. […]

Compound: lipopolysaccharide [LPS]
- Total STAT4 expression [1]: significantly increased

Compound: NCCCC[C@H](NC(=O)[C@@H](Cc1cc(Br)c(O)c(Br)c1)NC(=O)N1CCC(N2Cc3ccccc3NC2=O)CC1)C(=O)N1CCN(c2ccncc2)CC1 [BIBN4096]
- Effect of antagonist on CGRP- and SAX-mediated increase in STAT4 ([1]; BIBN4096 1 μM added 15 min before agonists (0.1 μM)): abrogated
- Effect of antagonist on CGRP- and SAX-mediated increase in langerin expression ([2]; BIBN4096 1 μM added 15 min before agonists (0.1 μM), n = 4): completely abrogated
- Effect of antagonist on CGRP- and SAX-mediated inhibition of HIV-1 trans-infection (HIV-1 ADA; BIBN4096 1 μM added 15 min before agonists (0.1 μM), n = 3): completely abrogated

Compound: serinyl-CGRP2-37-amide with an albumin binding fatty acid moiety in the N-terminus [SAX]
- Total STAT4 expression [1]: significantly increased
- Phosphorylation of induced STAT4 (pSTAT4) upon cytokine stimulation ([1]; after 24 h agonist treatment, 30 min IL12 + IFNα): could be readily phosphorylated
- Half-life compared to CGRP [3]: longer
- pEC50 [95% CI], increase in langerin surface expression ([2]; MDLCs treated 24 h, flow cytometry, -log molar, n = 5): 8.3 [9.6–6.5]
- pIC50 [95% CI], inhibition of MDLCs-mediated HIV-1 trans-infection (HIV-1 ADA; MDLCs treated 24 h, pulsed with HIV-1 ADA 4 h, 7 days with autologous CD4+ T-cells, p24 ELISA, -log molar, n = 5): 8.9 [9.9–7.9]
- Inhibition of MDLCs-mediated HIV-1 trans-infection (in words) (HIV-1 ADA; MDLCs treated 24 h): significantly inhibited
- Fold lower potency of SAX than CGRP (HIV-1 ADA; blocking HIV-1 trans-infection in MDLCs): > 10 fold
- HIV-1 infection of dermal T-cells (p24+CD3+) [4]: undetectable levels

Compound: CGRP1–8: previously described CGRP N-terminal fragment (ACDTATCV; not fully specified (bridges); ends and bridges not checked; UniProt P06881 83-90, looked up, fragment)
- Total STAT4 expression [1]: failed to increase
- Increase in langerin surface expression (in words) ([2]; MDLCs treated 24 h, flow cytometry): fails to increase
- Inhibition of MDLCs-mediated HIV-1 trans-infection (in words) (HIV-1 ADA; MDLCs treated 24 h): lacks anti-HIV-1 inhibitory activity
